Experimental data published in PubChem BioAssay (NCI).
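Grown in 96-well plates, cells were treated for 48 hours with each compound at five concentrations. Insufficient inhibition: endpoint recorded as highest concentration tested. The concentration for 50% growth inhibition is given as GI50. TGI denotes the concentration required for complete inhibition of growth.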

How the values were obtained:
Experiment in all cases: DTP human tumour cell line panel, 48 h
[1] = test system: CCRF-CEM leukemia
[2] = test system: NCI-H460 lung
[3] = test system: SNB-19 CNS
[4] = test system: SK-MEL-28 melanoma
[5] = test system: BT-549 breast
[6] = test system: OVCAR-3 ovarian
[7] = test system: SNB-75 CNS
[8] = test system: HS 578T breast

| SMILES | TGI [1] | TGI [2] | TGI [3] | TGI [4] | TGI [5] | TGI [6] | TGI [7] | TGI [8] | GI50 [1] | GI50 [2] | GI50 [3] | GI50 [5] | GI50 [6] | GI50 [7] | GI50 [8] | GI50 [4] |
| --- | --- | --- | --- | --- | --- | --- | --- | --- | --- | --- | --- | --- | --- | --- | --- | --- |
| CCOC(=O)c1c(NCc2ccccc2)n(-c2ccccc2)c(=S)n(-c2ccccc2)c1=O | > 100 µM | > 100 µM | > 100 µM | > 100 µM | > 100 µM | > 100 µM | > 100 µM | 94.4 µM |  |  |  |  |  |  |  |  |
| C[C@H]1c2ccccc2CN1CCCOc1cc2c(cc1OCC1CC1)C1(CCCC1)C(N)=N2 | 6.82 µM | 2.1 µM | 11.8 µM |  | 10.8 µM | 6.86 µM | 4.86 µM | 9.44 µM | 1.46 µM | 1.02 µM | 5.65 µM | 4.8 µM | 1.91 µM | 0.994 µM | 1.74 µM |  |
| Cc1nn(C(=O)c2ccncc2)c2c1C(c1cccc([N+](=O)[O-])c1)SC(N)=N2 (stereo unspecified) | > 10 µM | > 10 µM | > 10 µM | > 10 µM | > 10 µM | > 10 µM | > 10 µM | > 10 µM |  |  |  |  |  |  |  |  |
| COc1ccc2c(c1)C(=O)c1c-2n(CCCN)c(=O)c2cc([N+](=O)[O-])ccc12 | < 0.01 µM | 0.0146 µM | 2.13 µM |  |  | 15.9 µM |  | 4.44 µM | < 0.01 µM | < 0.01 µM | < 0.01 µM | < 0.01 µM | 2.79 µM |  | 1.81 µM |  |
| COC(=O)/C(=C\c1ccco1)P(=O)(OC)OC | 94.2 µM | > 100 µM | > 100 µM | > 100 µM | > 100 µM | 81.6 µM | > 100 µM | > 100 µM |  |  |  |  |  |  |  |  |
| CCN1C(=O)N(CC)C2C1NN=c1s/c(=C\c3ccc[nH]3)c(=O)n12 (stereo unspecified) | > 100 µM | > 41.8 µM | > 100 µM | > 100 µM | > 100 µM | 0.948 µM | 0.598 µM | > 100 µM | 0.402 µM | 0.36 µM | 0.626 µM | 0.834 µM | 0.279 µM | 0.14 µM | 0.335 µM |  |
| O=C1CSC(c2ccccc2O)N1c1nnc(Cn2ccnc2)o1 (stereo unspecified) | 52.9 µM | > 100 µM |  | 41.2 µM | 29.2 µM | 16.4 µM | > 100 µM | > 100 µM | 4.37 µM | 4.76 µM |  | 6.26 µM | 3.04 µM | 11.6 µM | 20.5 µM | 13.8 µM |
| O=C1/C(=C/c2cccc(Br)c2)COc2ccc(O)c(O)c21 | 1.69 µM | 5.42 µM | 3.04 µM | 3.33 µM | 4.35 µM | 2.07 µM | 3.83 µM | 7.53 µM | 0.312 µM | 2.14 µM | 1.53 µM | 2.03 µM | 0.675 µM | 0.933 µM | 2.28 µM | 1.75 µM |
| Cc1c2ccncc2c(C)c2c1c1cc(CO)ccc1n2C | 4.18 µM | 1.1 µM | 4.24 µM | 6.5 µM | 7.84 µM | 2.32 µM | 2.7 µM | 7.86 µM | 0.545 µM | 0.243 µM | 0.431 µM | 1.73 µM | 0.498 µM | 1.07 µM | 0.96 µM | 1.82 µM |
| N/C(=N\c1nc2ccccc2s1)NC(=NC1CCCCC1)NC1CCCCC1 | 9.28 µM | 3.43 µM | 3.02 µM | 3.24 µM | 3.22 µM | 3.17 µM | 2.62 µM | 3.89 µM | 2.46 µM | 1.77 µM | 1.59 µM | 1.65 µM | 1.68 µM | 1.33 µM | 1.77 µM | 1.75 µM |
| Cc1oc2c(c1C(=O)N1CC[C@@H](N)C1)C(=O)c1c(c(O)c3ccccc3c1O)C2=O | 4.33 µM | 2.21 µM | 15.7 µM | 20.9 µM | 22.5 µM | 9.5 µM | 15.4 µM | 22.6 µM | 1.01 µM | 0.308 µM | 2.45 µM | 8.83 µM | 2.68 µM | 2.11 µM | 5.23 µM | 7.47 µM |
| CC1(C)CC2=C(Sc3ccccc3N2)C(=O)C1C(=O)C(=O)Nc1cc(Cl)ccc1Cl (stereo unspecified) | > 100 µM | 28.1 µM | > 100 µM | > 100 µM | > 100 µM | > 100 µM | > 100 µM | > 100 µM |  |  |  |  |  |  |  |  |
| O=c1cccc(C#CC#CCCCO)o1 | > 100 µM | 33.6 µM | 39.1 µM | 22.2 µM | 23.6 µM | 4.94 µM | 66.3 µM | 25.5 µM | 5.73 µM | 9.55 µM | 9.13 µM | 7.95 µM | 1.93 µM | 18.2 µM | 9.68 µM | 5.85 µM |
| CN1CCN(c2cc3nc4ccccc4n(-c4ccc(Cl)cc4)c-3cc2=N)CC1 |  | > 100 µM | > 100 µM |  | > 100 µM | 16.7 µM |  | 95.7 µM |  | 39.6 µM | > 100 µM | 41.6 µM | 2.78 µM |  | 20.7 µM |  |
| COc1cc2c(cc1-c1coc3cc(OCC=C(C)C)ccc3c1=O)OCO2 |  | 35.1 µM | > 100 µM | > 100 µM | 48.4 µM | > 100 µM | > 100 µM | > 100 µM |  |  |  |  |  |  |  |  |
| NC(=O)c1cccc(-c2cc(C(N)=O)ccc2Cl)c1 | > 100 µM | 54 µM | > 100 µM | > 100 µM | > 100 µM | 37.5 µM | 5.5 µM | > 100 µM | 2.19 µM | 12.2 µM | 2.89 µM | 6.82 µM | 2.36 µM | 1.1 µM | 2.59 µM | 7.17 µM |
| COc1cccc(C2C(C#N)=C(N)Oc3c2ccc2ccccc32)c1 (stereo unspecified) | 18.2 µM | 1.18 µM | 20.5 µM | 24.5 µM | 12.1 µM | 0.0439 µM | 15.1 µM | 15.1 µM | 0.0353 µM | 0.0246 µM | 0.0322 µM | 0.029 µM | < 0.0144 µM | < 0.0151 µM | < 0.0133 µM | 2.31 µM |
| OCc1ccc(N2CCCC2)cc1Cl | > 100 µM | 28.5 µM | > 100 µM | > 100 µM | > 100 µM | 7.25 µM | > 100 µM | > 100 µM | 31.3 µM | 3.55 µM | > 100 µM | 32 µM | 2.18 µM | 24.5 µM | > 50 µM | > 100 µM |
